Measured values as given in PubChem BioAssay (NCI).
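Growth conditions: 96-well plates. Treatment: test compound, 48 hours, 5 concentrations. Analysis: linear interpolation between bracketing concentrations; unreached endpoints set to highest concentration. GI50 = concentration required for 50% inhibition of growth. TGI is the concentration that stops growth completely.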

How the values were obtained:
Assay in all cases: DTP human tumour cell line panel, 48 h
NCI-H23 lung = tested on: NCI-H23 lung
LOX IMVI melanoma = tested on: LOX IMVI melanoma
SK-MEL-28 melanoma = tested on: SK-MEL-28 melanoma
786-0 renal = tested on: 786-0 renal
RXF 393 renal = tested on: RXF 393 renal
SF-295 CNS = tested on: SF-295 CNS
SNB-75 CNS = tested on: SNB-75 CNS
SNB-19 CNS = tested on: SNB-19 CNS
UACC-62 melanoma = tested on: UACC-62 melanoma
SK-MEL-5 melanoma = tested on: SK-MEL-5 melanoma
HCT-15 colon = tested on: HCT-15 colon
HCC-2998 colon = tested on: HCC-2998 colon
CAKI-1 renal = tested on: CAKI-1 renal
SW-620 colon = tested on: SW-620 colon
PC-3 prostate = tested on: PC-3 prostate
SF-539 CNS = tested on: SF-539 CNS
KM12 colon = tested on: KM12 colon
DU-145 prostate = tested on: DU-145 prostate
RPMI-8226 leukemia = tested on: RPMI-8226 leukemia
SK-MEL-2 melanoma = tested on: SK-MEL-2 melanoma
K-562 leukemia = tested on: K-562 leukemia
TK-10 renal = tested on: TK-10 renal
MCF7 breast = tested on: MCF7 breast
EKVX NSCLC = tested on: EKVX NSCLC
SN12C renal = tested on: SN12C renal
NCI-H522 lung = tested on: NCI-H522 lung
HT29 colon = tested on: HT29 colon
UACC-257 melanoma = tested on: UACC-257 melanoma
COLO 205 colon = tested on: COLO 205 colon
MDA-MB-468 breast = tested on: MDA-MB-468 breast
MOLT-4 leukemia = tested on: MOLT-4 leukemia
U251 CNS = tested on: U251 CNS
OVCAR-3 ovarian = tested on: OVCAR-3 ovarian
OVCAR-5 ovarian = tested on: OVCAR-5 ovarian
ACHN renal = tested on: ACHN renal
OVCAR-4 ovarian = tested on: OVCAR-4 ovarian
UO-31 renal = tested on: UO-31 renal
IGROV1 ovarian = tested on: IGROV1 ovarian
SF-268 CNS = tested on: SF-268 CNS
OVCAR-8 ovarian = tested on: OVCAR-8 ovarian
T-47D breast = tested on: T-47D breast
M14 melanoma = tested on: M14 melanoma
CCRF-CEM leukemia = tested on: CCRF-CEM leukemia
A549 NSCLC = tested on: A549 NSCLC
HOP-92 NSCLC = tested on: HOP-92 NSCLC
HL-60(TB) leukemia = tested on: HL-60(TB) leukemia
MDA-MB-435 = tested on: MDA-MB-435
NCI-H226 lung = tested on: NCI-H226 lung
BT-549 breast = tested on: BT-549 breast
HS 578T breast = tested on: HS 578T breast
HCT-116 colon = tested on: HCT-116 colon
HOP-62 NSCLC = tested on: HOP-62 NSCLC
NCI/ADR-RES ovarian = tested on: NCI/ADR-RES ovarian
MALME-3M melanoma = tested on: MALME-3M melanoma
A498 renal = tested on: A498 renal
SR leukemia = tested on: SR leukemia
NCI-H460 lung = tested on: NCI-H460 lung
MDA-MB-231 breast = tested on: MDA-MB-231 breast
SK-OV-3 ovarian = tested on: SK-OV-3 ovarian

COc1cnc2c(c1)C(=O)c1c-2n(CCCNCCO)c(=O)c2cc(OC)c(OC)cc12
GI50 (NCI-H23 lung): 0.395 µM
TGI (NCI-H23 lung): 2.34 µM
GI50 (LOX IMVI melanoma): 0.475 µM
TGI (LOX IMVI melanoma): 1.9 µM
GI50 (SK-MEL-28 melanoma): 13.2 µM
TGI (SK-MEL-28 melanoma): 26.2 µM
GI50 (786-0 renal): 2.54 µM
TGI (786-0 renal): 14.9 µM
GI50 (RXF 393 renal): 1.52 µM
TGI (RXF 393 renal): 5.81 µM
GI50 (SF-295 CNS): 0.418 µM
TGI (SF-295 CNS): 12.3 µM
GI50 (SNB-75 CNS): 0.352 µM
TGI (SNB-75 CNS): 10.3 µM
GI50 (SNB-19 CNS): 1.47 µM
TGI (SNB-19 CNS): 15.3 µM
GI50 (UACC-62 melanoma): 1.17 µM
TGI (UACC-62 melanoma): 10.4 µM
GI50 (SK-MEL-5 melanoma): 0.72 µM
TGI (SK-MEL-5 melanoma): 3.16 µM
GI50 (HCT-15 colon): 2.74 µM
TGI (HCT-15 colon): 14.6 µM
GI50 (HCC-2998 colon): 2.25 µM
TGI (HCC-2998 colon): 10.8 µM
GI50 (CAKI-1 renal): 1.85 µM
TGI (CAKI-1 renal): 16.3 µM
GI50 (SW-620 colon): 1.37 µM
TGI (SW-620 colon): 18.2 µM
GI50 (PC-3 prostate): 2.77 µM
TGI (PC-3 prostate): 22.2 µM
GI50 (SF-539 CNS): 0.492 µM
TGI (SF-539 CNS): 2.4 µM
GI50 (KM12 colon): 12.4 µM
TGI (KM12 colon): 25.9 µM
GI50 (DU-145 prostate): 0.726 µM
TGI (DU-145 prostate): 12.1 µM
GI50 (RPMI-8226 leukemia): 1.73 µM
TGI (RPMI-8226 leukemia): 10.5 µM
GI50 (SK-MEL-2 melanoma): 17.1 µM
TGI (SK-MEL-2 melanoma): 37.9 µM
GI50 (K-562 leukemia): 0.708 µM
TGI (K-562 leukemia): 22.9 µM
GI50 (TK-10 renal): 15.5 µM
TGI (TK-10 renal): 30.1 µM
GI50 (MCF7 breast): 0.174 µM
TGI (MCF7 breast): 4.05 µM
GI50 (EKVX NSCLC): 6.9 µM
TGI (EKVX NSCLC): 20.4 µM
GI50 (SN12C renal): 3.28 µM
TGI (SN12C renal): 16 µM
GI50 (NCI-H522 lung): 0.459 µM
TGI (NCI-H522 lung): 3.33 µM
GI50 (HT29 colon): 1.46 µM
TGI (HT29 colon): 10.9 µM
GI50 (UACC-257 melanoma): 13.6 µM
TGI (UACC-257 melanoma): > 100 µM
GI50 (COLO 205 colon): 3.33 µM
TGI (COLO 205 colon): 20 µM
GI50 (MDA-MB-468 breast): 1.08 µM
TGI (MDA-MB-468 breast): 2.78 µM
GI50 (MOLT-4 leukemia): 0.311 µM
TGI (MOLT-4 leukemia): 19.1 µM
GI50 (U251 CNS): 0.495 µM
TGI (U251 CNS): 10.8 µM
GI50 (OVCAR-3 ovarian): 4.52 µM
TGI (OVCAR-3 ovarian): 16.9 µM
GI50 (OVCAR-5 ovarian): 4.91 µM
TGI (OVCAR-5 ovarian): 18.4 µM
GI50 (ACHN renal): 2.1 µM
TGI (ACHN renal): 13.2 µM
GI50 (OVCAR-4 ovarian): 8.24 µM
TGI (OVCAR-4 ovarian): 27.6 µM
GI50 (UO-31 renal): 5.96 µM
TGI (UO-31 renal): 19.5 µM
GI50 (IGROV1 ovarian): 12.1 µM
TGI (IGROV1 ovarian): 28 µM
GI50 (SF-268 CNS): 0.92 µM
TGI (SF-268 CNS): 20.9 µM
GI50 (OVCAR-8 ovarian): 3 µM
TGI (OVCAR-8 ovarian): 16 µM
GI50 (T-47D breast): 0.746 µM
TGI (T-47D breast): 12.3 µM
GI50 (M14 melanoma): 3.77 µM
TGI (M14 melanoma): 15.8 µM
GI50 (CCRF-CEM leukemia): 0.268 µM
TGI (CCRF-CEM leukemia): 18.8 µM
GI50 (A549 NSCLC): 4.88 µM
TGI (A549 NSCLC): 20.7 µM
GI50 (HOP-92 NSCLC): 5.07 µM
TGI (HOP-92 NSCLC): 20.8 µM
GI50 (HL-60(TB) leukemia): 0.733 µM
TGI (HL-60(TB) leukemia): 13.5 µM
GI50 (MDA-MB-435): 6.88 µM
TGI (MDA-MB-435): 20.7 µM
GI50 (NCI-H226 lung): 1.35 µM
TGI (NCI-H226 lung): 9.83 µM
GI50 (BT-549 breast): 9.48 µM
TGI (BT-549 breast): 22.9 µM
GI50 (HS 578T breast): 12.1 µM
TGI (HS 578T breast): 43.1 µM
GI50 (HCT-116 colon): 1.15 µM
TGI (HCT-116 colon): 2.85 µM
GI50 (HOP-62 NSCLC): 0.349 µM
TGI (HOP-62 NSCLC): 3.78 µM
GI50 (NCI/ADR-RES ovarian): 16.4 µM
TGI (NCI/ADR-RES ovarian): > 100 µM
GI50 (MALME-3M melanoma): 7.2 µM
TGI (MALME-3M melanoma): 21.6 µM
GI50 (A498 renal): 12.5 µM
TGI (A498 renal): 25.6 µM
GI50 (SR leukemia): 0.393 µM
TGI (SR leukemia): 21.5 µM
GI50 (NCI-H460 lung): 0.423 µM
TGI (NCI-H460 lung): 8.75 µM
GI50 (MDA-MB-231 breast): 6.52 µM
TGI (MDA-MB-231 breast): 20.3 µM
GI50 (SK-OV-3 ovarian): 1.62 µM
TGI (SK-OV-3 ovarian): 5.98 µM
